Tests used:
[1] = molecular target: T1, GAT1 (Homo sapiens, UniProt P30531); experiment: FLIPR membrane potential (FMP) assay, CHO cells stably expressing GAT1; type: cell-based; settings: n = 2
T1 construct: expressed in transfected cells
From the text: In order to scrutinize the mode of inhibition of bicyclo-GABA and the N-methylated derivative 2, the ability to be translocated by BGT1 was investigated in the functional FMP assay able to discriminate between substrates and inhibitors, as previously described ([Al-Khawaja et al., 2014]).
The tsA201 cell line (a transformed HEK293 cell line), the Flp-In CHO cell lines stably expressing human (h) GATs and the HEK293 cell line stably expressing human α1β2γ2 GABAA receptors have been described previously and were cultured accordingly ([Al-Khawaja et al., 2014]; [Falk-Petersen et al., 2020]). […]
The FMP assay performed on human α1β2γ2 GABAA receptors in HEK293 cells was performed as described and data analyzed accordingly ([Falk-Petersen et al., 2020]). […] Test compound solutions were prepared at 4x concentration in assay buffer and added to ligand plates pre-heated at 37°C for 10–15 min in the FLEXstation3 plate reader (Molecular Devices). After incubation, 33.3 µL test compound solution (4x) was automatically transferred to each well in the cell plate and the signal was measured for 90 s by measuring emission at 560 nm caused by excitation at 530 nm. […] Data obtained in the FMP assay are given as relative changes in fluorescence units (ΔRFU) by subtracting the average of the baseline fluorescence signal from the peak fluorescence signal after compound addition. […]

[2] = system: BGT1; set-up: method as in Kobayashi et al., 2014; settings: ref Kobayashi et al., 2014, cited from earlier work

T1 sequence (P30531 whole entry): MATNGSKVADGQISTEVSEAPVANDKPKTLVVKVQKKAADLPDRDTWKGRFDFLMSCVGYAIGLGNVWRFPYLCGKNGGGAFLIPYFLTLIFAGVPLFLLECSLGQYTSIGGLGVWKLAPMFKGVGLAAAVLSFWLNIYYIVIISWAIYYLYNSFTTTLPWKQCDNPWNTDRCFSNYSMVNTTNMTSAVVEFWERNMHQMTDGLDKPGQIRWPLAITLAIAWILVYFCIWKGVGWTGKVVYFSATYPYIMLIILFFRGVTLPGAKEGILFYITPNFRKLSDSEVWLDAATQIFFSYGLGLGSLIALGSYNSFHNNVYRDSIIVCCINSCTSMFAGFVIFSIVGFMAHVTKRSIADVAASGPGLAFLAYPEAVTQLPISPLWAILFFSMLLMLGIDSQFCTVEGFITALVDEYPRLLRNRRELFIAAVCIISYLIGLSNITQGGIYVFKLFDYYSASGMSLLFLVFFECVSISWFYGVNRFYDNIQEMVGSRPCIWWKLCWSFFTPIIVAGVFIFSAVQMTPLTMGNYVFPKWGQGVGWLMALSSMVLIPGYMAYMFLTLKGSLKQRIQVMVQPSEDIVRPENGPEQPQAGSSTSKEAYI

Inhibitory effect at GAT1 ([1]; in the presence of GABA EC50 concentration (10 µM)): specific to BGT1
Substrate activity at GAT1 ([1]; tested as substrate, without GABA): lack of activity
SMILES: N[C@@]12CC[C@H](C(=O)O)[C@@H]1C2 [bicyclo-GABA, (1S,2S,5R)-5-aminobicyclo[3.1.0]hexane-2-carboxylic acid]
IC50 ([2]; BGT1 inhibition): 590 nM
Higher activity for BGT1 compared to 1 [2]: 9 times
Higher activity for BGT1 than GAT3 ([2]; subtype-selectivity BGT1 vs GAT3): 129 times

From paper PMC8476755 (Frontiers in Chemistry, 2021)
